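Protocol summary: plate cells (96-well), add compound at 5 concentrations, incubate 48 h, interpolate endpoints linearly. GI50 is the concentration that inhibits growth by half. TGI: concentration producing complete growth inhibition.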
Experiments:
Test in all cases: DTP human tumour cell line panel, 48 h
KM12 colon = system: KM12 colon
PC-3 prostate = system: PC-3 prostate
HS 578T breast = system: HS 578T breast
MCF7 breast = system: MCF7 breast
SK-MEL-5 melanoma = system: SK-MEL-5 melanoma
OVCAR-8 ovarian = system: OVCAR-8 ovarian
UACC-257 melanoma = system: UACC-257 melanoma
NCI-H460 lung = system: NCI-H460 lung
SK-MEL-28 melanoma = system: SK-MEL-28 melanoma
A498 renal = system: A498 renal
UACC-62 melanoma = system: UACC-62 melanoma
HOP-62 NSCLC = system: HOP-62 NSCLC
HL-60(TB) leukemia = system: HL-60(TB) leukemia
NCI-H226 lung = system: NCI-H226 lung
DU-145 prostate = system: DU-145 prostate
MDA-MB-231 breast = system: MDA-MB-231 breast
SR leukemia = system: SR leukemia
RPMI-8226 leukemia = system: RPMI-8226 leukemia
BT-549 breast = system: BT-549 breast
OVCAR-5 ovarian = system: OVCAR-5 ovarian
HCC-2998 colon = system: HCC-2998 colon
U251 CNS = system: U251 CNS
786-0 renal = system: 786-0 renal
LOX IMVI melanoma = system: LOX IMVI melanoma
MALME-3M melanoma = system: MALME-3M melanoma
A549 NSCLC = system: A549 NSCLC
UO-31 renal = system: UO-31 renal
EKVX NSCLC = system: EKVX NSCLC
NCI-H522 lung = system: NCI-H522 lung
MDA-MB-435 = system: MDA-MB-435
IGROV1 ovarian = system: IGROV1 ovarian
SF-268 CNS = system: SF-268 CNS
HOP-92 NSCLC = system: HOP-92 NSCLC
MDA-N = system: MDA-N
CCRF-CEM leukemia = system: CCRF-CEM leukemia
CAKI-1 renal = system: CAKI-1 renal
HT29 colon = system: HT29 colon
TK-10 renal = system: TK-10 renal
SF-539 CNS = system: SF-539 CNS
OVCAR-4 ovarian = system: OVCAR-4 ovarian
SF-295 CNS = system: SF-295 CNS
SK-MEL-2 melanoma = system: SK-MEL-2 melanoma
NCI-H23 lung = system: NCI-H23 lung
SNB-19 CNS = system: SNB-19 CNS
MOLT-4 leukemia = system: MOLT-4 leukemia
ACHN renal = system: ACHN renal
SN12C renal = system: SN12C renal
K-562 leukemia = system: K-562 leukemia
SNB-75 CNS = system: SNB-75 CNS
RXF 393 renal = system: RXF 393 renal
HCT-116 colon = system: HCT-116 colon
COLO 205 colon = system: COLO 205 colon
SW-620 colon = system: SW-620 colon
HCT-15 colon = system: HCT-15 colon
M14 melanoma = system: M14 melanoma
SK-OV-3 ovarian = system: SK-OV-3 ovarian
OVCAR-3 ovarian = system: OVCAR-3 ovarian
T-47D breast = system: T-47D breast
NCI/ADR-RES ovarian = system: NCI/ADR-RES ovarian
M19-MEL melanoma = system: M19-MEL melanoma
SNB-78 CNS = system: SNB-78 CNS
DMS 114 small cell lung = system: DMS 114 small cell lung
LXFL 529 NSCLC = system: LXFL 529 NSCLC
KM20L2 colon = system: KM20L2 colon

In the case of `Cc1occc1C(=S)Nc1ccc(Cl)c(/C=N/OC(C)(C)C)c1`, the TGI (KM12 colon) is reported as 32.3 µM, the TGI (PC-3 prostate) is reported as 33 µM and the TGI (HS 578T breast) is reported as 51.6 µM. It also gave a TGI (MCF7 breast) of 42.9 µM, a TGI (SK-MEL-5 melanoma) of 33.4 µM and a TGI (OVCAR-8 ovarian) of 38.8 µM. For the same compound, the TGI (UACC-257 melanoma) was 31.7 µM, the TGI (NCI-H460 lung) was 29.7 µM and the TGI (SK-MEL-28 melanoma) was 34.4 µM. For the same compound, the TGI (A498 renal) was 40.2 µM, the TGI (UACC-62 melanoma) was 28 µM and the TGI (HOP-62 NSCLC) was 45.9 µM. The TGI (HL-60(TB) leukemia) was 51.5 µM, the TGI (NCI-H226 lung) was 32.4 µM and the TGI (DU-145 prostate) was 48.7 µM. It also gave a TGI (MDA-MB-231 breast) of 42.3 µM, a TGI (SR leukemia) of 35.6 µM and a TGI (RPMI-8226 leukemia) of 47.8 µM. It also gave a TGI (BT-549 breast) of 32.2 µM, a TGI (OVCAR-5 ovarian) of 31.3 µM and a TGI (HCC-2998 colon) of 34.2 µM. The TGI (U251 CNS) was 28.5 µM, the TGI (786-0 renal) was 49.9 µM and the TGI (LOX IMVI melanoma) was 29.2 µM. The TGI (MALME-3M melanoma) was > 56.5 µM, the TGI (A549 NSCLC) was 38.6 µM and the TGI (UO-31 renal) was 27 µM. The TGI (EKVX NSCLC) was 43.3 µM, the TGI (NCI-H522 lung) was 24.8 µM and the TGI (MDA-MB-435) was 31.7 µM. For the same compound, the TGI (IGROV1 ovarian) was > 56.3 µM, the TGI (SF-268 CNS) was 54.8 µM and the TGI (HOP-92 NSCLC) was 26.5 µM. The TGI (MDA-N) was 37 µM, the TGI (CCRF-CEM leukemia) was 53.4 µM and the TGI (CAKI-1 renal) was 41.1 µM. For the same compound, the TGI (HT29 colon) was 28.5 µM, the TGI (TK-10 renal) was 49.8 µM and the TGI (SF-539 CNS) was > 100 µM. It also gave a TGI (OVCAR-4 ovarian) of 45 µM, a TGI (SF-295 CNS) of 28.5 µM and a TGI (SK-MEL-2 melanoma) of 39.5 µM. It also gave a TGI (NCI-H23 lung) of 34.4 µM, a TGI (SNB-19 CNS) of 40.6 µM and a TGI (MOLT-4 leukemia) of 31.8 µM. The TGI (ACHN renal) was 30.6 µM, the TGI (SN12C renal) was 31.8 µM and the TGI (K-562 leukemia) was > 100 µM. For the same compound, the TGI (SNB-75 CNS) was 56.7 µM, the TGI (RXF 393 renal) was 31.1 µM and the TGI (HCT-116 colon) was 27 µM. It also gave a TGI (COLO 205 colon) of 34.1 µM, a TGI (SW-620 colon) of 36.9 µM and a TGI (HCT-15 colon) of 31.2 µM. For the same compound, the TGI (M14 melanoma) was 40.9 µM, the TGI (SK-OV-3 ovarian) was 58.7 µM and the TGI (OVCAR-3 ovarian) was 31.3 µM. The TGI (T-47D breast) was 42.6 µM and the TGI (NCI/ADR-RES ovarian) was 32.7 µM.
With `CC1=NN(c2ccc(S(=O)(=O)O)cc2)C(=O)/C1=C/c1ccc(Cl)cc1` the TGI (KM12 colon) was > 100 µM, the TGI (PC-3 prostate) was > 100 µM and the TGI (HS 578T breast) was > 100 µM. For the same compound, the TGI (MCF7 breast) was > 100 µM, the TGI (SK-MEL-5 melanoma) was > 100 µM and the TGI (OVCAR-8 ovarian) was > 100 µM. The TGI (UACC-257 melanoma) was > 100 µM, the TGI (NCI-H460 lung) was > 100 µM and the TGI (SK-MEL-28 melanoma) was > 100 µM. The TGI (A498 renal) was > 100 µM, the TGI (UACC-62 melanoma) was > 100 µM and the TGI (HOP-62 NSCLC) was > 100 µM. The TGI (HL-60(TB) leukemia) was > 100 µM, the TGI (NCI-H226 lung) was > 100 µM and the TGI (DU-145 prostate) was > 100 µM. The TGI (MDA-MB-231 breast) was > 100 µM, the TGI (SR leukemia) was > 100 µM and the TGI (RPMI-8226 leukemia) was > 100 µM. For the same compound, the TGI (BT-549 breast) was > 100 µM, the TGI (OVCAR-5 ovarian) was > 100 µM and the TGI (U251 CNS) was > 100 µM. For the same compound, the TGI (786-0 renal) was > 100 µM, the TGI (LOX IMVI melanoma) was > 100 µM and the TGI (MALME-3M melanoma) was > 100 µM. The TGI (A549 NSCLC) was > 100 µM, the TGI (UO-31 renal) was > 100 µM and the TGI (EKVX NSCLC) was > 100 µM. The TGI (NCI-H522 lung) was > 100 µM, the TGI (MDA-MB-435) was > 100 µM and the TGI (IGROV1 ovarian) was > 100 µM. The TGI (SF-268 CNS) was > 100 µM, the TGI (HOP-92 NSCLC) was > 100 µM and the TGI (MDA-N) was > 100 µM. For the same compound, the TGI (CCRF-CEM leukemia) was > 100 µM, the TGI (CAKI-1 renal) was > 100 µM and the TGI (HT29 colon) was > 100 µM. For the same compound, the TGI (TK-10 renal) was > 100 µM, the TGI (SF-539 CNS) was > 100 µM and the TGI (OVCAR-4 ovarian) was > 100 µM. For the same compound, the TGI (SF-295 CNS) was > 100 µM, the TGI (SK-MEL-2 melanoma) was > 100 µM and the TGI (NCI-H23 lung) was > 100 µM. The TGI (SNB-19 CNS) was > 100 µM, the TGI (MOLT-4 leukemia) was > 100 µM and the TGI (ACHN renal) was > 100 µM. For the same compound, the TGI (SN12C renal) was > 100 µM, the TGI (K-562 leukemia) was > 100 µM and the TGI (SNB-75 CNS) was > 100 µM. For the same compound, the TGI (RXF 393 renal) was > 100 µM, the TGI (HCT-116 colon) was > 100 µM and the TGI (COLO 205 colon) was > 100 µM. The TGI (SW-620 colon) was > 100 µM, the TGI (HCT-15 colon) was > 100 µM and the TGI (M14 melanoma) was > 100 µM. The TGI (SK-OV-3 ovarian) was > 100 µM, the TGI (OVCAR-3 ovarian) was > 100 µM and the TGI (T-47D breast) was > 100 µM. For the same compound, the TGI (NCI/ADR-RES ovarian) was > 100 µM.
`CC(C)C(=O)CC(c1ccc(Cl)cc1)N1N=C(C(C)C)CC1c1ccc(Cl)cc1` (stereo not given) was tested, and the TGI (KM12 colon) was > 100 µM, the TGI (M19-MEL melanoma) was > 55.6 µM and the TGI (SK-MEL-5 melanoma) was > 100 µM. For the same compound, the TGI (OVCAR-8 ovarian) was > 65.8 µM, the TGI (UACC-257 melanoma) was 49.5 µM and the TGI (NCI-H460 lung) was > 100 µM. For the same compound, the TGI (SK-MEL-28 melanoma) was > 100 µM, the TGI (UACC-62 melanoma) was > 100 µM and the TGI (HOP-62 NSCLC) was > 100 µM. The TGI (SNB-78 CNS) was > 100 µM, the TGI (HL-60(TB) leukemia) was 76.8 µM and the TGI (NCI-H226 lung) was > 100 µM. For the same compound, the TGI (SR leukemia) was 28.2 µM, the TGI (RPMI-8226 leukemia) was > 100 µM and the TGI (HCC-2998 colon) was > 100 µM. The GI50 (U251 CNS) was 53.3 µM, the TGI (U251 CNS) was > 100 µM and the TGI (LOX IMVI melanoma) was > 100 µM. For the same compound, the TGI (MALME-3M melanoma) was > 100 µM, the TGI (A549 NSCLC) was > 100 µM and the TGI (UO-31 renal) was > 100 µM. The TGI (EKVX NSCLC) was > 100 µM, the TGI (NCI-H522 lung) was > 100 µM and the TGI (IGROV1 ovarian) was > 100 µM. For the same compound, the GI50 (SF-268 CNS) was > 100 µM, the TGI (SF-268 CNS) was > 100 µM and the TGI (HOP-92 NSCLC) was > 100 µM. For the same compound, the TGI (CCRF-CEM leukemia) was > 69.8 µM, the TGI (CAKI-1 renal) was > 94.9 µM and the TGI (HT29 colon) was > 100 µM. For the same compound, the TGI (TK-10 renal) was > 100 µM, the TGI (SF-539 CNS) was > 42.7 µM and the TGI (SF-295 CNS) was > 31.6 µM. For the same compound, the TGI (SK-MEL-2 melanoma) was > 92.2 µM, the TGI (DMS 114 small cell lung) was > 100 µM and the TGI (NCI-H23 lung) was > 100 µM. The TGI (SNB-19 CNS) was > 100 µM, the GI50 (MOLT-4 leukemia) was 22.4 µM and the TGI (MOLT-4 leukemia) was 83.4 µM. The TGI (ACHN renal) was > 100 µM, the TGI (SN12C renal) was > 100 µM and the TGI (K-562 leukemia) was > 100 µM. For the same compound, the TGI (SNB-75 CNS) was > 100 µM, the TGI (RXF 393 renal) was > 100 µM and the TGI (LXFL 529 NSCLC) was > 100 µM. For the same compound, the TGI (HCT-116 colon) was > 100 µM, the TGI (KM20L2 colon) was > 100 µM and the TGI (COLO 205 colon) was > 100 µM. For the same compound, the TGI (SW-620 colon) was > 100 µM, the GI50 (M14 melanoma) was 54.5 µM and the TGI (M14 melanoma) was > 100 µM. For the same compound, the GI50 (OVCAR-3 ovarian) was 45.6 µM and the TGI (OVCAR-3 ovarian) was > 100 µM.

— PubChem BioAssay (NCI)
